In US20050182252A1, “Novel 2'-C-methyl nucleoside derivatives” (priority 2004, published 2005):
Structures can show the parent of a compound that is named as a salt.

In the case of C[C@@]1(O)[C@H](O)[C@@H](COP2(=O)O[C@H](c3ccccc3)C[C@H](c3ccccc3)O2)O[C@H]1n1ccc2c(N)ncnc21 (stereo partly drawn) (as salt: trifluoroacetic acid salt) [Compound 16.16, 4-amino-7-(cis-5′-O-[4,6-cis-diphenyl-2-oxo-1,3,2-dioxaphosphorinan-2-yl]-2′-C-methyl-beta-D-ribofuranosyl)-7H-pyrrolo[2,3-d]pyrimidine trifluoroacetic acid salt], the melting point is reported as 140 to 143 °C.
C[C@@]1(O)[C@H](O)[C@@H](CO)O[C@H]1n1ccc2c(N=[N+]=[N-])ncnc21 [Compound 25.1, 4-azido-7-(2′-C-methyl-beta-D-ribofuranosyl)-7H-pyrrolo[2,3-d]pyrimidine] showed a melting point of 179 to 180 °C.
With C[C@@]1(O)[C@H](O)[C@@H](COP2(=O)OCC[C@@H](c3cccc(Br)c3)O2)O[C@H]1n1cnc2c(N)ncnc21 (stereo partly drawn) [Compound 21.6, cis-5′-O-[4-(3-bromophenyl)-2-oxo-1,3,2-dioxaphosphorinan-2-yl]-2′-C-beta-methyl adenosine] the melting point was 108 to 110 °C.
Compound C[C@@]1(O)[C@H](O)[C@@H](COP2(=O)OCC[C@H](c3cccc(F)c3F)O2)O[C@H]1n1ccc2c(N)ncnc21 (stereo partly drawn) (as salt: trifluoroacetic acid salt) [Compound 16.36, 4-amino-7-(cis-5′-O-[4-(2,3-difluorophenyl)-2-oxo-1,3,2-dioxaphosphorinan-2-yl]-2′-C-methyl-beta-D-ribofuranosyl)-7H-pyrrolo[2,3-d]pyrimidine trifluoroacetic acid salt] has a melting point of 177 to 180 °C.
Work on C[C@@]1(O)[C@H](O)[C@@H](COP2(=O)OCC[C@H](c3cccc(C(F)(F)F)c3)O2)O[C@H]1n1ccc2c(=O)[nH]c(N)nc21 (some centres unmarked) [Compound 17.24] yielded a melting point of 145 to 165 °C.
Work on C[C@@]1(O)[C@H](O)[C@@H](COP2(=O)OC[C@@H](c3ccccc3)[C@@H](c3ccccc3)O2)O[C@H]1n1ccc2c(N)ncnc21 (stereo partly drawn) (as salt: trifluoroacetic acid salt) [Compound 16.13, 4-amino-7-(cis-5′-O-14,5-cis-diphenyl-2-oxo-1,3,2-dioxaphosphorinan-2-yl]-2′-C-methyl-beta-D-ribofuranosyl)-7H-pyrrolo[2,3-d]pyrimidine trifluoroacetic acid salt] yielded a melting point of 174 to 177 °C.
In the case of CO[C@@H]1COP(=O)(OC[C@H]2O[C@@H](n3ccc4c(N)ncnc43)[C@](C)(O)[C@@H]2O)O[C@@H]1c1cccc(Cl)c1 (some centres unmarked) (as salt: trifluoroacetic acid salt) [Compound 16.23], the melting point is reported as 116 to 120 °C.
Work on CO[C@H]1COP(=O)(OC[C@H]2O[C@@H](n3ccc4c(N)ncnc43)[C@](C)(O)[C@@H]2O)O[C@@H]1c1cccc(Cl)c1 (some centres unmarked) (as salt: trifluoroacetic acid salt) [Compound 16.24] yielded a melting point of 140 to 143 °C.
With C[C@@]1(O)[C@H](O)[C@@H](COP2(=O)OCC[C@H](c3cc(C(F)(F)F)cc(C(F)(F)F)c3)O2)O[C@H]1n1ccc2c(=O)[nH]c(N)nc21 (some centres unmarked) [Compound 17.23] the melting point was 155 to 175 °C.
With C[C@@]1(O)[C@H](O)[C@@H](COP2(=O)OCC[C@@H](c3cc(F)ccc3F)O2)O[C@H]1n1cnc2c(N)ncnc21 (stereo partly drawn) [Compound 21.3, cis-5′-O-[4-(2,5difluorophenyl)-2-oxo-1,3,2-dioxaphosphorinan-2-yl]-2′-C-beta-methyl-adenosine] the melting point was 75 to 78 °C.
Compound C[C@@]1(O)[C@H](O)[C@@H](COP2(=O)OCC[C@@H](c3ccccn3)O2)O[C@H]1n1ccc2c(=O)[nH]c(N)nc21 (stereo partly drawn) (as salt: trifluoroacetic acid salt) [Compound 17.8, 2-amino-7-(cis-5′-O-[4-(pyridin-2-yl)-2-oxo-1,3,2-dioxaphosphorinan-2-yl]-2′-C methyl-beta-D-ribofuranosyl)-7H-pyrrolo[2,3-d]pyrimidin-4(3H)-one trifluoroacetic acid salt] has a melting point of 180 to 190 °C.
Work on C[C@@]1(O)[C@H](O)[C@@H](COP2(=O)OCC[C@H](c3cc(F)cc(F)c3)O2)O[C@H]1n1ccc2c(N)ncnc21 (stereo partly drawn) [Compound 16.27, 4-amino-7-(cis-5′-O-[-4-(3,5-difluorophenyl)-2-oxo-1,3,2-dioxaphosphorinan-2-yl]-2′-C-methyl-beta-D-ribofuranosyl)-7H-pyrrolo[2,3-d]pyrimidine] yielded a melting point of 135 to 140 °C.
C[C@@]1(O)[C@H](O)[C@@H](CO[P@]2(=O)OCC[C@H](c3ccncc3)O2)O[C@H]1n1ccc2c(N)ncnc21 [Compound 16.30, 4-amino-7-(cis-5′-O-[4-(R)-(pyridin-4-yl)-2-oxo-1,3,2-dioxaphosphorinan-2-yl]-2′-C-methyl-beta-D-ribofuranosyl)-7H-pyrrolo[2,3-d]pyrimidine] gave a melting point of 132 to 136 °C.
In the case of C[C@@]1(O)[C@H](O)[C@@H](CO[P@]2(=O)OCC[C@H](c3ccccc3)O2)O[C@H]1n1ccc2c(N)ncnc21 [Compound 16.34], the melting point is reported as 177 to 180 °C.
Compound C[C@@]1(O)[C@H](O)[C@@H](COP2(=O)OC[C@@H](c3ccccc3)[C@@H](c3ccccc3)O2)O[C@H]1n1ccc2c(N)ncnc21 (stereo partly drawn) [Compound 16.22, 4-amino-7-(trans-5′-O-[4,5-cis-diphenyl-2-oxo-1,3,2-dioxaphosphorinan-2-yl]-2′-C-methyl-beta-D-ribofuranosyl)-7H-pyrrolo[2,3-d]pyrimidine] has a melting point of 160 to 163 °C.
C[C@@]1(O)[C@H](O)[C@@H](COP2(=O)OCCC(c3cccc(Cl)c3)O2)O[C@H]1n1cnc2c(N)ncnc21 (some centres unmarked) [Compound 18, 5′-O-[4-(3-chlorophenyl)-2-oxo-1,3,2-dioxaphosphorinan-2-yl]-2′-C-methyladenosine] showed a melting point of 153 °C.
Compound CC1(C)C[C@H](c2ccccc2)OP(=O)(OC[C@H]2O[C@@H](n3ccc4c(=O)[nH]c(N)nc43)[C@](C)(O)[C@@H]2O)O1 (stereo partly drawn) (as salt: trifluoroacetic acid salt) [Compound 17.18, 2-amino-7-(cis-5′-O-[6,6-dimethyl-4-phenyl-2-oxo-1,3,2-dioxaphosphorinan-2-yl]-2′C methyl-beta-D-ribofuranosyl)-7H-pyrrolo[2,3-d]pyrimidin-4(3H)-one trifluoroacetic acid salt] has a melting point of 192 to 194 °C.
C[C@@]1(O)[C@H](O)[C@@H](COP2(=O)OCC[C@@H](c3cccc(Cl)c3)O2)O[C@H]1n1ccc2c(=O)[nH]c(N)nc21 (stereo partly drawn) [Compound 17.2, 2-amino-7-(cis-5-O-[4-(S)-(3-chlorophenyl)-2-oxo-1,3,2-dioxaphosphorinan-2-yl]-2′-C methyl-beta-D-ribofuranosyl)-7H-pyrrolo[2,3-d]pyrimidin-4(3H)-one] gave a melting point of 175 °C.
For C[C@@]1(O)[C@H](O)[C@@H](CO[P@]2(=O)OCC[C@H](c3cccc(Cl)c3)O2)O[C@H]1n1ccc2c(N)ncnc21 [Compound 16.28, 4-amino-7-(cis-5′-O-[4-(R)-(3-chlorophenyl)-2-oxo-1,3,2-dioxaphosphorinan-2-yl]-2′-C-methyl-beta-D-ribofuranosyl)-7H-pyrrolo[2,3-d]pyrimidine], the melting point was 126 to 128 °C.
For COc1ccc(F)c([C@H]2CCOP(=O)(OC[C@H]3O[C@@H](n4ccc5c(N)ncnc54)[C@](C)(O)[C@@H]3O)O2)c1 (stereo partly drawn) (as salt: trifluoroacetic acid salt) [Compound 16.37, 4-amino-7-(cis-5′-O-[4-(2-fluoro-5-methoxyphenyl)-2-oxo-1,3,2-dioxaphosphorinan-2-yl]-2′-C-methyl-beta-D-ribofuranosyl)-7H-pyrrolo[2,3-d]pyrimidine trifluoroacetic acid salt], the melting point was 80 to 85 °C.
